Assay results published in US20040157911A1, “Storage-stable and bio-stable formulations of ace inhibitors, and methods for preparation thereof” (priority 1999, published 2004).
Structures can show the parent of a compound that is named as a salt.

Assay: Dispersion time of enalapril maleate in alcohol/water liquids
Assay type: physicochemical
Conditions: for Dispersion Time: 50 g in 200 mL, 200 rpm
Description: Enalapril maleate (50 grams) was added to 200 mL of liquid. The liquid ranged from 100% alcohol/0% water to 0% alcohol/100% water (see Table 1). The solutions were stirred at 200 rpm at room temperature using a Lightning Mixer (General Signal Controls, Rochester, N.Y.) with the mixing blade 1 cm from the bottom of the beaker. Enalapril maleate was considered “dispersed” when all of the drug powder was wetted and had become immersed in the liquid.

CCOC(=O)[C@H](CCc1ccccc1)N[C@@H](C)C(=O)N1CCC[C@H]1C(=O)O [enalapril maleate]
Time to full dispersion in alcohol (20 mg/ud in SD3A denatured alcohol (50 mg/ud), stirring at 500 rpm (preparation of Formula I)): less than 10 seconds
Dispersion Time (25%/75% alcohol/water, full value 1 minute, 15 seconds (seconds in next row)): 60 s
Dispersion Time (50%/50% alcohol/water, room temperature): 45 s
Dispersion Time (75%/25% alcohol/water, room temperature): 30 s
Dispersion Time (85%/15% alcohol/water, room temperature): 28 s
Dispersion Time (100%/0% alcohol/water, room temperature): 27 s
